What was measured:
[1] = commercially available injection vial containing a solution of paricalcitol; cited from earlier work
[2] = accelerated stability model: paricalcitol solution in stoppered vials or ampule, inverted, 80° C., 21 days, HPLC; type: physicochemical
Procedure: In order to effectively evaluate different container closures, an accelerated stability model was devised, wherein vials that contained a paricalcitol solution and were sealed with 27 different types of stoppers were stored inverted and protected from light at 80° C. for 21 days. The vials were different only in the composition of the stoppers which were obtained from commercially available sources. Throughout the 21 day trial, samples were removed at day 2, 7, 14 and 21, and the contents of the vial were analyzed by HPLC (High Pressure Liquid Chromatography) to determine the concentration of the test compound paricalcitol compared to a control sample of known concentration. The control sample consisted of a paricalcitol injection solution stored in a sealed glass ampule which maintained 100% potency for the entirety of the test (21 days). The relative concentration of the paricalcitol in the vials stored with test stoppers compared to the control sample was measured indicating stability of the paricalcitol over the 21 day test. In addition, the accelerated shelf-life study conditions were conducted on an identical vial wherein the headspace of the vials was blanketed with argon gas above the paricalcitol solutions prior to sealing with the appropriate stopper. The argon blanketed sample containing a lower concentration of oxygen was compared to the control sample to determine the stability of the test compound in a more inert atmosphere. The 80° C. 21 day rapid screening method of solutions of paricalcitol in the presence of different stoppers was designed to predict the stability of the test compound (i.e., paricalcitol) relative to the containers that are used in the current marketed product. The paricalcitol solution preparation: (5 mcg/mL in water-propylene glycol-ethanol/50:30:20; as defined under USP28-NF23 Page 1471 guidelines) contains not less than 90.0 percent and not more than 110.0 percent of the labeled amount of paricalcitol (C27H44O3). 1 mL of solution was added to a 5 mL or 10 mL (for 20 mm stopper) Type 1 glass vial. The vials were sealed with the various types of stoppers. In order to evaluate the effect of oxygen, a second series of identical vials was blanketed with argon prior to capping with the stoppers. All of the samples were stored inverted in a light-protected, 80° C. oven to obtain maximum contact between solution and the stopper. Ampule samples (with no headspace argon gassing) were prepared and stored along with vials under the same condition to serve as a control. At least 2 samples for each type of stopper were pulled out at 2, 7, 14, and 21 day time points and assayed using HPLC without further dilution. Paricalcitol concentration profiles from the vials containing different composition stoppers were compared to the same solution packaged in ampules. The relative concentration of remaining paricalcitol was plotted over the course of the 21 day test to determine the relative stability of paricalcitol in the presence of the test stopper. Chromatographic system used: The liquid chromatograph was equipped with a 252-nm detector and a 4.6-mm×25-cm column that contains 5-μm packing L1 with a flow rate about 2 mL per minute. […] Separately inject equal volumes (about 100 to 200 μL) of the Standard preparation and the Assay preparation into the chromatograph, record the chromatograms, and measure the responses for the major peaks. Calculate the quantity, in μg, of paricalcitol (C27H44O3) in each mL of the Injection taken by the formula: C(rU/rS), in which C is the concentration, in μg per mL, of paricalcitol in the control standard, calculated on the basis of the content of paricalcitol in the USP Paricalcitol Solution RS; and rU and rS are the paricalcitol peak responses obtained from the test samples and the control standard, respectively. Results Five stability studies were conducted to evaluate the stoppers. […]

[3] = formulation study of the effect of BHT on paricalcitol stability, 35 day 80° C. degradation model; type: physicochemical; conditions: no BHT, ampule and vial with 4432/50/Flu/B2-40 stopper, 35 days
Procedure: BHT is an antioxidant and is often used to protect chemicals and materials from oxidative degradation and is present in several of the stoppers. Levels of BHT were identified in the test samples during the 21 day, 80° C. storage and during a separate 25, 30, and 40° C. stability studies conducted over a 9-month interval. […] To determine, whether or not BHT would enhance the stability or cause degradation of the paricalcitol solution, a formulation study was conducted to evaluate the effect of BHT on the stability of paricalcitol in the Zemplar® formulation with the current stopper using a 35 day 80° C. degradation model. In this study, different amounts of BHT were added to the Zemplar® formulation with concentrations of 0.05, 0.1, 0.5, and 1.0 mcg/mL. The controls consisted of the Zemplar formulation without BHT contained in ampules and vials sealed with either […]-1/FT/B2-40 or the 4432/50/Flu/B2-40 stoppers. […] Therefore, causes not fully understood led to the enhanced stabilization of the paricalcitol solution contained in samples with 4432/50/Flu/B2-40 stoppers.

stability with argon headspace gassing ([2]; Study 1, argon headspace, chlorobutyl stoppers versus other stoppers): more stable | degradation over the 21 day test period ([2]; Study 1, without argon headspace, Stopper #8 (Ashland chlorobutyl, Tefzel) and Stopper #7 (Ashland chlorobutyl, uncoated) versus stoppers #3, 10, 12, 13): least degradation | paricalcitol concentration ([2]; Study 2, West chlorobutyl and Daikyo chlorinated butyl stoppers, 21 days at 80° C.): remained unchanged | concentration of paricalcitol at the 21 day interval ([2]; Study 2, argon headspace, butyl, bromobutyl and POE stoppers compared to chlorobutyl and chlorinated butyl stoppers): still lowest | stability profile ([2]; Study 3, without argon, Ashland 5212 chlorobutyl stoppers with Plasma and Prop coatings): constant stability profiles | performance relative to ampule ([2]; Study 4, West 4432/50 stopper without any barrier coating): performed as well as the ampule sample | time point at which potency drop starts ([2]; vial with D777-1/FT/B2-40 stopper (marketed stopper), 80° C.): 7 days | rate of decomposition over the 21 days ([2]; vials sealed with chlorobutyl or chlorinated butyl stoppers, 80° C.): slowest rate of decomposition | paricalcitol concentration [3]: remained constant
SMILES: C[C@H](/C=C/[C@H](C)C(C)(C)O)[C@H]1CC[C@H]2/C(=C/C=C3C[C@@H](O)C[C@H](O)C3)CCC[C@]12C [paricalcitol]
current shelf-life [1]: 1 year | concentration of paricalcitol within the vial ([2]; Study 1, without argon headspace, Stopper #8 (Ashland chlorobutyl, Tefzel)): comparable to the sample stored in the ampule | concentration of paricalcitol throughout the 21 day test ([2]; Study 4, stoppers consisting of chlorobutyl material): consistently maintained the highest concentration

From US20070166187A1, “Stabilization of paricalcitol using chlorobutyl or chlorinated butyl stoppers” (priority 2006, published 2007)
